Reference: patent publication US8658668B2, “PI3 kinase/mTOR dual inhibitor” (Eli Lilly and Company, priority 2011, dated 2014)

Tests used:
[1] = test system: MEXF 276 human tumor xenograft cells; assay: Oncotest tumor clonogenic assay, MEXF 276; type: cell-based; settings: colony formation, Melanoma MEXF 276, amelanotic melanoma, md, read-out: Absolute IC50
[2] = test system: LXFA 526 human tumor xenograft cells; assay: Oncotest tumor clonogenic assay, LXFA 526; type: cell-based; settings: colony formation, NSCLC LXFA 526, adeno carcinoma, pd, read-out: Absolute IC50
[3] = Pharmacokinetic properties in dogs; type: in vivo, dog; settings: for AUC: both sexes, beagle, dog, plasma, oral gavage, HEC suspension
Method: The range of administered doses is between 1 and 12 mg/kg in an HEC suspension.
Blood samples are collected into tubes containing potassium ethylenediaminetetraacetic acid from each dog at 0 (pre-dose), 0.5, 1, 2, 4, 8, and 24 hours post dose. Some studies also include samples collected at 0.25 hr and 12 hr time points. These samples are centrifuged to obtain plasma, which is subsequently frozen prior to analysis. […] The standard curves range from 1 to 5000 ng/mL. Plasma concentrations above the upper limit of quantitation are determined by dilution.

[4] = test system: CXF 1783 human tumor xenograft cells; assay: Oncotest tumor clonogenic assay, CXF 1783; type: cell-based; settings: colony formation, Colon CXF 1783, colon carcinoma, wd, read-out: Absolute IC50
pT308 AKT = assay: In vivo target inhibition in U87MG tumors, pT308 AKT; settings: Mus musculus, U-87 MG; for inhibition at 0.5 mg/kg: 0.5 mg/kg oral; for inhibition at 1.5 mg/kg: 1.5 mg/kg oral; for inhibition at 3 mg/kg: 3 mg/kg oral; for inhibition at 6 mg/kg: 6 mg/kg oral; for inhibition at 10 mg/kg: 10 mg/kg oral; for inhibition at 12 mg/kg: 12 mg/kg oral
Method: Implant U87MG human glioblastoma cells (5×10^6) subcutaneously into the flank of athymic nude mice in 0.2 mL of matrigel. Ten days post-implantation, dose mice orally according to a time course, single dose/single time point, or dose response protocol for the determination of TMED50 (threshold minimum effective dose). Flash freeze tumors at harvest and collect blood for the determination of parent compound plasma exposure and the calculation of TMEC50 (threshold minimum effective concentration) in the case of dose response studies. Homogenize tumors in 500 μL of XY Lysis Buffer (10 μg/mL Leupeptin, 10 μg/mL Trypsin-Chymotrypsin Inhibitor, 10 μg/mL Tosyl phenyl-alanyl chloromethyl ketone, 10 μg/mL Aprotinin, 60 mM Beta-Glycerol Phosphate, 1% Triton X100, 25 mM Tris pH 7.5, 2.5 mM Pyrophosphate, 150 mM NaCl, 2 mM p-tosyl-L-arginine methyl ester, 15 mM para-nitrophenyl phosphate, 5 mM benzamidine, 1 mM sodium vanadate, 10 mM sodium fluoride, 50 μg/mL phenyl-methane sulfonyl fluoride, 1 mM 1,4-dithiothreitol (DTT), 15 mM EDTA pH 8.0, 5 mM EGTA pH 8.0, 1 μM Microcystin, 1 μM Okadaic Acid, and 1 Roche Complete protease inhibitor mini-tablet per 10 mL) using RNase Free Pellet Pestle (Kimble-Kontes). Aliquot lysates and either assay immediately or store at −80° C. for later testing. Use the multiplex format of Meso Scale Discovery (Gaithersburg, Md.) ELISA technology and measure in vivo target inhibition of PI3K and mTOR to assess effects on phosphorylation of the threonine 308 site of AKT, a downstream effector of PI3K; phosphorylation on the threonine 389 site of p70 S6K and on the serine 240/244 site of S6RP, downstream effectors of mTORC1; phosphorylation of the serine 473 site of AKT, a downstream effector of mTORC2. Add 20 μg of lysate to carbon electrode containing 96-well plates pre-spotted with the appropriate capture antibodies. Probe the protein of interest using a ruthenium labeled detection antibody. Pass current over the electrode in the presence of read buffer containing the co-reactant TPA, and quantitate and record the light generated by electro-chemiluminescence with the MSD Sector 6000 instrument. Calculate percent inhibitions relative to the vehicle control group and perform ANOVA analysis using the JMP software package for the determination of statistical significance.

[5] = test system: HNXF 908 human tumor xenograft cells; assay: Oncotest tumor clonogenic assay, HNXF 908; type: cell-based; settings: colony formation, Head and Neck HNXF 908, squamous epithelium carcinoma, md, read-out: Absolute IC50
SJSA-1 = assay: Cell proliferation assay (CellTiter-Glo), SJSA-1; type: cell-based; settings: Homo sapiens, SJSA-1, 72 h
Method: Plate cells in a 96-well plate at 2000 cells/well in 100 μL of cell specific medium (for U87MG use DMEM, 10% FBS, 25 mM 4-(2-hydroxyethyl)-1-piperazineethanesulfonic acid (HEPES), 1.0 mM sodium pyruvate, and 0.1 mM Non Essential Amino Acids (ATCC Cat.#30-2002); for HT1080 use Eagle's MEM, 10% FBS (ATCC Cat.#30-2003); for H1975, A2780, SJSA-1 and 786-O use RPMI 1640, 10% FBS (ATCC Cat.#30-2001); for A204 use McCoy's 5A, 10% FBS (ATCC Cat.#30-2007) except in column 1 use medium only as the blank control. Incubate the plates overnight at 37° C. and 5% CO2. On the next day, prepare compound stocks at 1 mM in DMSO and serially dilute in DMSO in a 96-well round bottom polypropylene plate. Assay compounds at 10 concentrations in duplicate, 4 compounds per plate.
Transfer 4 μL of the DMSO serial dilutions to a 96 well plate and add 196 μL of culture medium to create a 10× stock for dosing. Gently transfer 11 μL of each dosing stock to the corresponding well of the cell plate resulting in a 0.2% DMSO concentration and a 111 μL final volume. […]
Prepared the CellTiter-Glo reagent (Promega, Cat: G7571) and add 100 µL to each well after the incubation is complete, homogenize the cells by mixing on an orbital shaker for 2 min and then incubate at RT for 10 min to allow the luminescent signal to stabilize. Record the luminescent raw data with a Wallac Victor V plate reader. […]

## CO[C@@H](C)Cn1c(=O)n(C)c2cnc3ccc(-c4cncc(C(C)(C)O)c4)cc3c21 [Example 1, 8-[5-(1-Hydroxy-1-methylethyl)pyridin-3-yl]-1-[(2S)-2-methoxypropyl]-3-methyl-1,3-dihydro-2H-imidazo[4,5-c]quinolin-2-one]
[1]
  IC50: 157 nM
[2]
  IC50: 84 nM
[3]; 1 mg/kg, 10 animals
  AUC: 1160 ng·h/mL
[3]; 3 mg/kg, 10 animals
  AUC: 3780 ng·h/mL
[3]; 4.5 mg/kg, 2 animals
  AUC: 5920 ng·h/mL
[3]; 6 mg/kg, 2 animals
  AUC: 9620 ng·h/mL
[3]; 9 mg/kg, 2 animals
  AUC: 10800 ng·h/mL
[3]; 12 mg/kg, 2 animals
  AUC: 19200 ng·h/mL
[3]; oral, 1 to 12 mg/kg
  correlation of determination R^2, linear regression of the mean AUC values for each dose: 0.96
[4]
  IC50: 29 nM
pT308 AKT; 0.5 hr post dose
  inhibition at 0.5 mg/kg: 23%
  inhibition at 1.5 mg/kg: 28%
  inhibition at 3 mg/kg: 43%
  inhibition at 6 mg/kg: 61%
  inhibition at 10 mg/kg: 88%
  inhibition at 12 mg/kg: 79%
pT308 AKT; 4 hr post dose
  inhibition at 0.5 mg/kg: 1%
  inhibition at 1.5 mg/kg: -8%
  inhibition at 3 mg/kg: -2%
  inhibition at 6 mg/kg: 1%
  inhibition at 10 mg/kg: 44%
  inhibition at 12 mg/kg: 43%
pT308 AKT; 0.25 hr post dose
  inhibition at 3 mg/kg: 28%
  inhibition at 6 mg/kg: 47%
pT308 AKT; 1 hr post dose
  inhibition at 3 mg/kg: 7%
  inhibition at 6 mg/kg: 41%
  inhibition at 10 mg/kg: 71%
pT308 AKT; 3 hr post dose
  inhibition at 3 mg/kg: 7%
pT308 AKT; 2 hr post dose
  inhibition at 6 mg/kg: 32%
  inhibition at 10 mg/kg: 53%
pT308 AKT; 6 hr post dose
  inhibition at 6 mg/kg: -4%
pT308 AKT; 12 hr post dose
  inhibition at 6 mg/kg: -16%
pT308 AKT; 8 hr post dose
  inhibition at 10 mg/kg: 13%
[5]
  IC50: 52 nM
SJSA-1
  IC50: 96 nM
